“Also recorded” adds a separate entry of the source.
Tests used:
RAW 264.7 cells = test: RANKL-induced osteoclast formation by RAW 264.7 cells, TRAP staining; format: cell-based, mouse; details: for osteoclast differentiation (TRAP+ multinucleated osteoclasts): exposure 4 days
Description: RAW 264.7 mouse macrophage/monocytes (TIB-71) were purchased from ATCC (Manassas, Va.). Cells were cultured in DMEM/1.5 g/l sodium bicarbonate (JRH Biosciences, Lenexa, Kans.) plus 10% non-heat-inactivated FBS (Invitrogen Corporation Carlsbad, Calif.). When needed, 5-HT was stripped from the FBS by incubating it twice in 0.25% Dextran-coated charcoal (Sigma-Aldrich, St. Louis, Mo.) for 30 minutes at 45° C. Recombinant mouse soluble RANKL (Immunex Corp., Seattle, Wash.) was added at a concentration of 10 ng/ml. Recombinant murine RANKL is an NH2-terminal fusion of a leucine zipper trimerization domain (Fanslow et al., 1994, Semin. Immunol. 6(5):267-278) with residues 134-316 of murine RANKL. […] Cultures were also exposed to the VMAT inhibitor reserpine and the MAO-B inhibitor pargylline (Sigma-Aldrich, St. Louis, Mo.), at the indicated concentrations for 4 days. Mouse bone marrow cells were obtained from long bones of 2-week old C57B1 mice and cultured for 7 days in αMEM/FBS supplemented with 50 ng/ml RANKL and 50 ng/ml human M-CSF (PeproTech Inc., Rocky Hill, N.J.).
(§1) Cells were stained for tartrate-resistant acid phosphatase (TRAP) using a commercially available kit (#387-A, Sigma-Aldrich, St. Louis, Mo.), according to the manufacturer's directions.

mice = test: New bone formation in calvarium after LPS or PTH plus fluoxetine, Van Giesson stain (Example 3); format: in vivo
Description: LPS (50 μl at 5 μg/μl) or PTH was injected subcutaneously above the calvarial bone once on day one to stimulate the osteoclasts.
After five days, the mice were sacrificed. The calvarium was fixed, decalcified, and analyzed histologically for new bone formation. Van Giesson stain was used to distinguish old bone from new bone (new bone stains blue). […] The x-axis represents arbitrary units of new bone formation, where 0 represents no new bone and 3 represents high amount of new bone.

[1] = test system: Primary osteoblasts obtained from mouse calvaria; test: Bone nodule formation in vitro, Von Kossa stain (Example 5); format: cell-based; details: two weeks in presence of Vitamin D, presence vs absence of fluoxetine
Description: Primary osteoblasts obtained from mouse calvaria were cultured in vitro for two weeks. […] The cells were then fixed and stained with Von Kossa stain, which stains for calcium phosphate present in bone nodules. Bone nodules formed by osteoblasts in vitro have the same cellular and biochemical composition found in bone. The number of bone nodules were counted.

Swiss Webster mice [2] = test: Systemic fluoxetine, trabecular parameters in mice (Example 2); format: in vivo; details: fluoxetine 10 mg/kg i.p. once a day for 6 weeks, vs non-treated mice
Description: After 6 weeks the animals were sacrificed and trabecular bones were examined.
The increased number, increased connectivity, and decreased space between the transversal structures (i.e. trabeculae) of “spongelike bone” is indicative of increased density and strength of trabecular bone.

[3] = test system: normal mouse bone marrow cells (BMC); test: Osteoclast formation from normal mouse bone marrow cells with M-CSF and RANKL; format: cell-based; details: TRAP staining
Description: Mouse bone marrow cells were obtained from long bones of 2-week old C57B1 mice and cultured for 7 days in αMEM/FBS supplemented with 50 ng/ml RANKL and 50 ng/ml human M-CSF (PeproTech Inc., Rocky Hill, N.J.).
as §1

[4] = test system: cathepsin K, MMP-9, TRAP expression; test: Northern blot analysis of osteoclast markers in RANKL-stimulated RAW 264.7 cells; format: cell-based, mouse; set-up: reduction in the expression of cathepsin K / reduction in the expression of MMP-9 / reduction in the expression of TRAP: dose or concentration left out as unconfirmed
Description: Total RNA was extracted from cells using the TRIAZOL reagent (Invitrogen Corporation, Carlsbad, Calif.), according to the manufacturer's instructions. For RT-PCR, […] of RNA were reversed-transcribed to cDNA using SuperScript II (Invitrogen Corporation, Carlsbad, Calif.) following the manufacturer's instructions. One-tenth of the cDNA was used as a template for the polymerase chain reaction (PCR) […] (35 cycles at 94° C. for 1 minute, 58° C. for 1 minute and 72° C. for 1 minute). For Northern blot analysis, […] of RNA were size fractionated on a 1.2% agarose denaturing gel and transferred onto nylon membranes. The membranes were hybridized to ^32P radiolabeled probes overnight at 42° C. in hybridization solution (50% formamide, 5× SSC, 5× Denhardt's solution, 0.5% SDS and […] salmon sperm DNA), washed twice to remove unbound probe in 1× SSC, 0.2% SDS at 50° C. for 20 minutes, and exposed to X-ray film. The DNA probes were generated by reverse transcriptase polymerase chain reaction (RT-PCR) from OCL RNA, using the following primer-pairs: […]

[5] = cited from earlier work
Swiss Webster mice [6] = test: Femur bone mass by microcomputer tomography after fluoxetine (Example 6); format: in vivo; set-up: Trabecular thickness: unit not given here; details: for Trabecular number / Trabecular spacing / Trabecular thickness / connectedness of trabeculae: hydrochloride
[7] = RANKL-stimulated RAW 264.7 cells
[8] = femur, fluoxetine 10 mg/kg i.p. daily for six weeks, n = 6
[9] = femur, fluoxetine 10 mg/kg i.p. daily for six weeks, n = 6, listed as Fluoxetine
[10] = fluoxetine-treated vs untreated mice
[11] = added serotonin in 5-HT-depleted FBS, Days 3 and 4 after RANKL induction

C#CCN(C)Cc1ccccc1 [pargylline]
osteoclast differentiation (TRAP+ multinucleated osteoclasts) (RAW 264.7 cells; presence of RANKL): had no effect

CNCCC(Oc1ccc(C(F)(F)F)cc1)c1ccccc1.Cl (racemic) [fluoxetine, (+/−)—N-methyl-3-phenyl-3-[(α,α,α-trifluoro-p-tolyl)oxy]propylamine hydrochloride]
new bone formation (mice; LPS injected above calvarial bone on day one, fluoxetine 10 mg/kg i.p. once a day for five days, vs LPS alone, hydrochloride): increased new bone formation; also recorded: greater increase in new bone | new bone formation (mice; co-administration of fluoxetine and PTH, vs PTH alone): greater increase in new bone | number of bone nodules [1]: increased | Trabecular spacing (Swiss Webster mice [2]): decreased | number of trabeculae per unit length of bone (Swiss Webster mice [2]): increased | thickness of trabeculae (Swiss Webster mice [2]): no significant difference | bone mineral content (BMC) (Swiss Webster mice [2]; hydrochloride): increase | connectedness of trabeculae (Swiss Webster mice [2]; hydrochloride): more connected; also recorded: increase | BMC-derived osteoclast formation [3]: significantly inhibited | reduction in the expression of MMP-9 [4, 7]: 80% | reduction in the expression of TRAP [4, 7]: ~20% | reduction in the expression of cathepsin K [4, 7]: ~70% | formation of TRAP positive cells (RAW 264.7 cells; RANKL-induced RAW 264.7 cells, fluoxetine concentration series): inhibited the formation of TRAP positive cells in a dose-dependent manner | osteoclast differentiation (TRAP positive multinucleated cells) (RAW 264.7 cells; RANKL-induced, 5-HT replete (FBS) and depleted (FBS−) serum): suppressed osteoclast differentiation | half-life ([5]; stated with the dosage range for treating depression): 170 to 220 h | ½ life ([5]; stated with the mouse i.p. regimen of Example 2): 1 to 2 days | Bone surface (Swiss Webster mice [6]; [8]): 16.9 ± 7.3 mm^2 | Trabecular number (Swiss Webster mice [6]; [8]): significant increases | Trabecular spacing (Swiss Webster mice [6]; [8]): reduction | Trabecular thickness (Swiss Webster mice [6]; [8]): stable | connectedness of trabeculae (Swiss Webster mice [6]; [8]): better connected | Bone volume/total volume (Swiss Webster mice [6]; femur, fluoxetine 10 mg/kg i.p. daily for six weeks, n = 6, in % (unit assumed)): 16.7 ± 7.3 | Trabecular number (Swiss Webster mice [6]; [9]): 3.26 ± 0.53 | Trabecular spacing (Swiss Webster mice [6]; [9]): 0.32 ± 0.05 | Trabecular thickness (Swiss Webster mice [6]; [9]): 0.09 ± 0.01 | connectedness of trabeculae (Swiss Webster mice [6]; [9]): 114.2 ± 53.0 | increase in bone mineral content (Swiss Webster mice [6]; [10]): 50% | increase in bone surface (Swiss Webster mice [6]; [10]): 50% | increase in bone volume/total volume (Swiss Webster mice [6]; [10]): 50%

NCCc1c[nH]c2ccc(O)cc12 [serotonin, 5-hydroxytryptamine]
MMP-9 expression [4, 11]: up-regulated | cathepsin K expression [4, 11]: up-regulated | number of osteoclasts (RAW 264.7 cells; added serotonin at 30 or 300 ng/ml, 5-HT depleted FBS, RANKL-stimulated): significantly increased | osteoclast formation (RAW 264.7 cells; addition of serotonin 3-300 ng/ml, cultures containing FBS (5-HT replete)): had no effect

COC(=O)[C@H]1[C@H]2C[C@@H]3c4[nH]c5cc(OC)ccc5c4CCN3C[C@H]2C[C@@H](OC(=O)c2cc(OC)c(OC)c(OC)c2)[C@@H]1OC [reserpine]
TRAP expression by mono- and bi-nucleated cells (RAW 264.7 cells; absence of RANKL): induced TRAP expression | formation of large multinucleated osteoclasts (RAW 264.7 cells; absence of RANKL): not formed | osteoclast differentiation (TRAP+ multinucleated osteoclasts) (RAW 264.7 cells; presence of RANKL): promoted osteoclast differentiation | cell size and multinucleation (RAW 264.7 cells; presence of RANKL, reserpine treatment): stimulated the formation of much larger cells with greater multinucleation

Reference: US7326733B2, “Methods for increasing bone density” (The Forsyth Institute, priority 2003, dated 2008)
